The record followed here is patent publication US20100254965A1, “Adenosine Signaling in Diagnosis, Treatment, and Prevention of Priapism and Erectile Dysfunction” (BOARD OF REGENTS ,THE UNIVERSITY OF TEXAS SYSTEM, priority 2006, published 2010).

The test system of test [1] is corpus cavernosal strips (CCS). Description: EFS-induced cAMP in CCS of ADA+ and ADA-/- mice. The format is cell-based, mouse. The conditions noted are these: CCS of either ADA-/- or ADA+ mice, EFS 5V 30 Hz; MRS1706 (10 nM), ZM241385 (50 nM), L-NAME (100 μM). The procedure:
FIG. 19. EFS leads to increased cAMP and cGMP production via A2BR in ADA-deficient mice. (a-b) Corpus cavernosal strips (CCS) of the ADA−/− and ADA+ mice were isolated and treated with 10 μM phenylephrine (PE) to induce precontraction. Then CCS were treated with MRS1706 (10 nM), ZM241385 (50 nM) or L-NAME (100 μM) prior to electrical field stimulation (EFS) at 5V and 30 Hz. 60 second after nerve stimulation, the CCS were quickly frozen and cellular cAMP (a) and cGMP (b) were measured by using commercial enzyme immunoassay kit (Amersham Pharmacia). N=4. Data are expressed as mean±SE. *p<0.05, ADA deficient mice versus the control; **p<0.05, CCS of ADA-deficient mice with MRS1706 and/or L-NAME treatment versus CCS of ADA-deficient mice without treatment; ***p<0.05, CCS of the control mice with MRS1706 and/or L-NAME treatment versus CCS of the control mice without treatment.
Function experiments. […] The contractility of each isolated corpus cavernosum smooth muscle cells (CCSM) strip was measured using an isometric force transducer (AD Instrument Inc., Georgia, Vt., USA). […] The contractile responses of the strips were analysed by adding 10 μM phenylephrine to the bath, and force changes were recorded in response to drug application and to electrical field stimulation. […]

The subject of test [2] is corpus cavernosal smooth muscle cells (CCSM). The test can be described thus: cGMP levels in primary CCSM / PVSM. The format is cell-based, mouse. To be noted: CCSM/PVSM of both wild type and A2BR deficient mice, 10 min. The source says: Results for wild-type and A2B^−/− mouse were statistically significant, p<0.01.
FIG. 18. Adenosine stimulated both cAMP and cGMP induction in corpus cavernosal smooth muscle cells (CCSM) via A2BR activation. (a) Adenosine receptor expression profile in purified primary CCSM. CCSM were purified from adult mouse penes. […] (b) CCSM were isolated and cultured from mouse penes. The cells were switched to serum-free medium and treated with different concentrations of adenosine with or without A2BR antagonist (MRS1706-10 μM), A2AR antagonist (ZM241385-50 nM) or A2AR agonist (CGS-21680-10 μM) alone for 10 min. Then cellular extracts were collected and cAMP levels were measured using an ELISA kit. The data represent mean±SE. *p<0.05, adenosine treated versus the untreated; **p<0.05, adenosine plus MRS1706 or ZM241385 versus the adenosine treated. (c) CCSM were isolated from penes of the wild type and A2BR-deficient mice and cultured with or without adenosine (100 μM), NECA (10 μM), a potent adenosine receptor agonist, forskolin (10 μM), an adenylyl cyclase agonist. […] N=4. *p<0.05, adenosine, forskolin and NECA treated versus the untreated control. (d) Corpus cavernosal strips (CCS) were isolated from wild type and A2BR-deficient mice and treated with different concentrations of adenosine in the presence or absence of L-NAME (100 μM) or MRS1706 (10 μM). 10 min after treatment, cellular extracts were collected and cGMP levels were measured by using a commercial enzyme immunoassay kit (Amersham Pharmacia). Data are expressed as mean±SE. *p<0.05, adenosine treated versus the control; **p<0.05, adenosine treated with MRS1706 versus the adenosine treated; ***p<0.05, CCS of A2BR-deficient mice treated with adenosine versus the CCS of wild type mice treated with adenosine. N=6-7. (e) CCSM were isolated from wild type and A2BR deficient mice and cultured with or without adenosine (100 μM), NECA (10 μM), a potent adenosine receptor agonist, forskolin (10 μM), an adenylyl cyclase agonist, or diethylamine-NONOate (DEA/NO) (10 μM). […] N=4. *p<0.05, DEA/NO treated versus to the untreated control. (f) Both cAMP and cGMP induction contribute to adenosine-mediated decreased PE-induced phosphorylation of myosin light chain (MLC). CCSM and CCS were isolated and cultured with the treatment of phenylephrine (PE-10 μM) in the presence or absence of adenosine (100 μM) or L-NAME (100 μM). 10 min after treatment, cellular extracts were isolated and western blot analysis were performed. The total MLC and phosphorylated MLC at S20 were detected by specific antibodies.
Isolation of primary corpus cavernosal smooth muscle cells (CCSM). Corpus cavernosum tissues were dissected as described above. Cavernosal tissue was washed in PBS and minced into […] pieces. Segments were incubated in 5-10 ml enzyme solutions containing 0.02% collagenase A (0.272 U/mg protein, Roche, Mannheim, Germany) and 0.5% elastase (3.73 U/mg protein, Cell system, St Katharinen, Germany) in a 75 mm flask at 37° C. for 6 hours. Enzymatic digestion was terminated by adding 10 ml DMEM supplemented with 10% fetal calf serum (FCS). […]
Tissue and corpus cavernosum smooth muscle cell (CCSM) cAMP and cGMP measurement. Quantitative assays for cAMP and cGMP were performed by using a commercial enzyme immunoassay kit (Amersham Pharmacia). […]

The structures appear in SMILES notation.

Take `CCCn1c(=O)c2[nH]c(-c3ccc(OCC(=O)Nc4ccc(C(C)=O)cc4)cc3)nc2n(CCC)c1=O` [MRS1706]: the “EFS-increased cAMP levels were blocked” value in test [1] is recorded as “completely blocked”.
With `Nc1ncnc2c1ncn2[C@@H]1O[C@H](CO)[C@@H](O)[C@H]1O` [adenosine], the cGMP levels entry in test [2] is “lack of significant differences in cGMP production”; in test [2] (listed as Adenosine), “had no effect”.
